Results: US20160046597A1, “RORC2 INHIBITORS AND METHODS OF USE THEREOF” (PFIZER INC., priority 2013, published 2016)

Biological target: T1, RORC2 ligand binding domain (6-His-RORC2 LBD) (Homo sapiens, UniProt P51449)
T1 construct: made in house; host or cells: E. coli
T1 sequence (P51449 269-508 limits assumed): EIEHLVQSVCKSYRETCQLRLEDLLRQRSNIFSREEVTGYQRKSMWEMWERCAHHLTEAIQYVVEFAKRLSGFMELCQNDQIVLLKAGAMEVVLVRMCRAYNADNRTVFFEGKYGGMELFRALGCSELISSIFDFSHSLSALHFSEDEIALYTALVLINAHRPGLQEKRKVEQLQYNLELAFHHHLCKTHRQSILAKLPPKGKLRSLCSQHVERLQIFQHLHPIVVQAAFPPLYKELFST
Assay: Co-activator recruitment by TR-FRET (RORC2 FRET)
Assay type: biochemical
Settings: 6.3 nM RORC2 LBD, 200 nM SRC1-2 coactivator peptide, 3 hours room temperature
Text: The activity of compound of the invention can be determined by a co-activator recruitment by TR-FRET (time-resolved fluorescence resonance energy transfer) assay. […] Due to the long lasting fluorescence emission of Europium, the non-specific, short-lived fluorescence is time-resolved (TR) from the fluorescence of interest. Inhibitors of the interaction of receptor and coactivator peptide are detected by a decrease in TR-FRET signal.
Specifically, in one embodiment the aforementioned assay was performed as outlined below. The assay was carried out in black polystyrene, 384-well plates in a total assay volume of 50.5 μL. The assay buffer contained 50 mM TRIS-HCL pH 7.5, 1 mM NaCl, 2 mM MgCl2, 0.5 mg/mL bovine serum albumin, and 5 mM dithiothreitol.

IC50 | SMILES
910 nM | O=C(Nc1ccc2[nH]cc(C3CCN(C(=O)C4CCCC4)CC3)c2c1)c1ccccc1F [Example 38, N-{3-[1-(cyclopentylcarbonyl)piperidin-4-yl]-1H-indol-5-yl}-2-fluorobenzamide]
380 nM | COc1ccc(C#N)cc1C(=O)Nc1ccc2[nH]cc(C3CCN(C(=O)C4CCCC4)CC3)c2c1 [Example 40, 5-cyano-N-{3-[1-(cyclopentylcarbonyl)piperidin-4-yl]-1H-indol-5-yl}-2-methoxybenzamide]
327 nM | N#Cc1ccc(F)c(C(=O)Nc2ccc3[nH]cc(C4CCN(C(=O)C5CCCC5)CC4)c3c2)c1 [Example 41, 5-cyano-N-{3-[1-(cyclopentylcarbonyl)piperidin-4-yl]-1H-indol-5-yl}-2-fluorobenzamide]
953 nM | COc1ccc(C(=O)Nc2ccc3[nH]cc(C4CCN(C(=O)C5CCCC5)CC4)c3c2)nc1 [Example 42, N-{3-[1-(cyclopentylcarbonyl)piperidin-4-yl]-1H-indol-5-yl}-5-methoxypyridine-2-carboxamide]
1030 nM | O=C(Nc1ccc2[nH]cc(C3CCN(C(=O)C4CCCC4)CC3)c2c1)c1ccc2scnc2c1 [Example 43, N-{3-[1-(cyclopentylcarbonyl)piperidin-4-yl]-1H-indol-5-yl}-1,3-benzothiazole-5-carboxamide]
624 nM | O=C(Nc1ccc2[nH]cc(C3CCN(C(=O)C4CCCC4)CC3)c2c1)c1ccccc1Cl [Example 44, 2-chloro-N-{3-[1-(cyclopentylcarbonyl)piperidin-4-yl]-1H-indol-5-yl}benzamide]
3460 nM | O=C(Nc1ccc2[nH]cc(C3CCN(C(=O)C4CCCC4)CC3)c2c1)c1ccc(CO)cc1 [Example 45, N-{3-[1-(cyclopentylcarbonyl)piperidin-4-yl]-1H-indol-5-yl}-4-(hydroxymethyl)benzamide]
1450 nM | O=C(Nc1ccc2[nH]cc(C3CCN(C(=O)C4CCCC4)CC3)c2c1)c1cccc(O)c1 [Example 46, N-{3-[1-(cyclopentylcarbonyl)piperidin-4-yl]-1H-indol-5-yl}-3-hydroxybenzamide]
211 nM | O=C(O)c1cccc(C(=O)Nc2ccc3[nH]cc(C4CCN(C(=O)C5CCCC5)CC4)c3c2)c1 [Example 48, 3-({3-[1-(cyclopentylcarbonyl)piperidin-4-yl]-1H-indol-5-yl}carbamoyl)benzoic acid]
1380 nM | O=C(Nc1ccc2[nH]cc(C3CCN(C(=O)C4CCCC4)CC3)c2c1)c1cccc2ncsc12 [Example 49, N-{3-[1-(cyclopentylcarbonyl)piperidin-4-yl]-1H-indol-5-yl}-1,3-benzothiazole-7-carboxamide]
1430 nM | NC(=O)c1cccc(C(=O)Nc2ccc3[nH]cc(C4CCN(C(=O)C5CCCC5)CC4)c3c2)c1 [Example 50, N-{3-[1-(cyclopentylcarbonyl)piperidin-4-yl]-1H-indol-5-yl}isophthalamide]
871 nM | O=C(Nc1ccc2[nH]cc(C3CCN(C(=O)C4CCCC4)CC3)c2c1)c1ccc2[nH]cnc2c1 [Example 51, N-{3-[1-(cyclopentylcarbonyl)piperidin-4-yl]-1H-indol-5-yl}-1H-benzimidazole-5-carboxamide]
1110 nM | Cn1cnc2cc(C(=O)Nc3ccc4[nH]cc(C5CCN(C(=O)C6CCCC6)CC5)c4c3)ccc21 [Example 52, N-{3-[1-(cyclopentylcarbonyl)piperidin-4-yl]-1H-indol-5-yl}-1-methyl-1H-benzimidazole-5-carboxamide]
124 nM | Cc1ncc(C(=O)Nc2ccc3[nH]cc(C4CCN(C(=O)C5CCCC5)CC4)c3c2)cc1C#N [Example 53, 5-cyano-N-{3-[1-(cyclopentylcarbonyl)piperidin-4-yl]-1H-indol-5-yl}-6-methylnicotinamide]
256 nM | Cn1cc(C2CCN(C(=O)C3CCCC3)CC2)c2cc(NC(=O)N3CCCC(C#N)C3)ccc21 (stereo not shown) [Example 58, 3-cyano-N-(3-(1-(cyclopentanecarbonyl)piperidin-4-yl)-1-methyl-1H-indol-5-yl)piperidine-1-carboxamide]
330 nM | CN(CCC#N)C(=O)Nc1ccc2c(c1)c(C1CCN(C(=O)C3CCCC3)CC1)cn2C [Example 59, 1-(2-cyanoethyl)-3-{3-[1-(cyclopentylcarbonyl)piperidin-4-yl]-1-methyl-1H-indol-5-yl}-1-methylurea]
216 nM | Cn1cc(C2CCN(C(=O)C3CCCC3)CC2)c2cc(NC(=O)N3CC[C@H](C#N)C3)ccc21 [Example 60, (3S)-3-cyano-N-{3-[1-(cyclopentylcarbonyl)piperidin-4-yl]-1-methyl-1H-indol-5-yl}pyrrolidine-1-carboxamide]

IC50 | SMILES
335 nM | Cn1cc(C2CCN(C(=O)C3CCCC3)CC2)c2cc(NC(=O)N3CC(CC#N)C3)ccc21 [Example 61, 3-(cyanomethyl)-N-{3-[1-(cyclopentylcarbonyl)piperidin-4-yl]-1-methyl-1H-indol-5-yl}azetidine-1-carboxamide]
425 nM | Cn1cc(C2CCN(C(=O)C3CCCC3)CC2)c2cc(NC(=O)N3CCOC(C#N)C3)ccc21 (stereo not shown) [Example 62, 2-cyano-N-{3-[1-(cyclopentylcarbonyl)piperidin-4-yl]-1-methyl-1H-indol-5-yl}morpholine-4-carboxamide]
193 nM | Cn1cc(C2CCN(C(=O)C3CCCC3)CC2)c2cc(NC(=O)N3CC(C#N)C3)ccc21 [Example 63, 3-cyano-N-{3-[1-(cyclopentylcarbonyl)piperidin-4-yl]-1-methyl-1H-indol-5-yl}azetidine-1-carboxamide]
5.8 nM | Cn1cc(C2CCN(C(=O)C3CCCC3)CC2)c2cc(NS(=O)(=O)c3ccc(F)cc3)ccc21 [Example 64, N-(3-(1-(cyclopentylcarbonyl)piperidin-4-yl)-1-methyl-1H-indol-5-yl)-4-fluorobenzenesulfonamide]
37.3 nM | Cn1cc(C2CCN(C(=O)C3CCCC3)CC2)c2cc(NS(=O)(=O)c3cnc(N)nc3)ccc21 [Example 65, 2-amino-N-{3-[1-(cyclopentylcarbonyl)piperidin-4-yl]-1-methyl-1H-indol-5-yl}pyrimidine-5-sulfonamide]
7 nM | Cn1cc(C2CCN(C(=O)C3CCCC3)CC2)c2cc(NS(=O)(=O)c3cccc(F)c3)ccc21 [Example 66, N-{3-[1-(cyclopentylcarbonyl)piperidin-4-yl]-1-methyl-1H-indol-5-yl}-3-fluorobenzenesulfonamide]
11.4 nM | Cn1cc(C2CCN(C(=O)C3CCCC3)CC2)c2cc(NS(=O)(=O)c3cccc(C#N)c3)ccc21 [Example 67, 3-cyano-N-{3-[1-(cyclopentylcarbonyl)piperidin-4-yl]-1-methyl-1H-indol-5-yl}benzenesulfonamide]
6.5 nM | Cn1cc(C2CCN(C(=O)C3CCCC3)CC2)c2cc(NS(=O)(=O)c3ccccc3)ccc21 [Example 68, N-{3-[1-(cyclopentylcarbonyl)piperidin-4-yl]-1-methyl-1H-indol-5-yl}benzenesulfonamide]
270 nM | Cn1cnc(S(=O)(=O)Nc2ccc3c(c2)c(C2CCN(C(=O)C4CCCC4)CC2)cn3C)c1 [Example 69, N-{3-[1-(cyclopentylcarbonyl)piperidin-4-yl]-1-methyl-1H-indol-5-yl}-1-methyl-1H-imidazole-4-sulfonamide]
7.2 nM | Cn1cc(C2CCN(C(=O)C3CCCC3)CC2)c2cc(NS(=O)(=O)C3CCCCC3)ccc21 [Example 70, N-{3-[1-(cyclopentylcarbonyl)piperidin-4-yl]-1-methyl-1H-indol-5-yl}cyclohexanesulfonamide]
23.9 nM | Cn1cc(C2CCN(C(=O)C3CCCC3)CC2)c2cc(NS(=O)(=O)c3ccc(C#N)cc3)ccc21 [Example 71, 4-cyano-N-{3-[1-(cyclopentylcarbonyl)piperidin-4-yl]-1-methyl-1H-indol-5-yl}benzenesulfonamide]
128 nM | Cn1cc(C2CCN(C(=O)C3CCCC3)CC2)c2cc(NS(=O)(=O)C3CC3)ccc21 [Example 72, N-{3-[1-(cyclopentylcarbonyl)piperidin-4-yl]-1-methyl-1H-indol-5-yl}cyclopropanesulfonamide]
67.7 nM | CCCS(=O)(=O)Nc1ccc2c(c1)c(C1CCN(C(=O)C3CCCC3)CC1)cn2C [Example 73, N-{3-[1-(cyclopentylcarbonyl)piperidin-4-yl]-1-methyl-1H-indol-5-yl}propane-1-sulfonamide]
53 nM | COCCCS(=O)(=O)Nc1ccc2c(c1)c(C1CCN(C(=O)C3CCCC3)CC1)cn2C [Example 74, N-{3-[1-(cyclopentylcarbonyl)piperidin-4-yl]-1-methyl-1H-indol-5-yl}-3-methoxypropane-1-sulfonamide]
14.7 nM | COc1ccc(S(=O)(=O)Nc2ccc3c(c2)c(C2CCN(C(=O)C4CCCC4)CC2)cn3C)cc1 [Example 75]
22.9 nM | Cn1cc(C2CCN(C(=O)C3CCCC3)CC2)c2cc(NS(=O)(=O)c3cccnc3)ccc21 [Example 76, N-{3-[1-(cyclopentylcarbonyl)piperidin-4-yl]-1-methyl-1H-indol-5-yl}pyridine-3-sulfonamide]
50.5 nM | Cn1cc(C2CCN(C(=O)C3CCCC3)CC2)c2cc(NS(=O)(=O)Cc3ccccc3)ccc21 [Example 77, N-{3-[1-(cyclopentylcarbonyl)piperidin-4-yl]-1-methyl-1H-indol-5-yl}-1-phenylmethanesulfonamide]
